Numbers after ± are expanded uncertainties.
Test: mn = molality of the nth substance listed, in mol/kg
Settings: 100.8 kPa, Liquid, Pycnometric method

Question: With `[NH4+].[O]=[V](=[O])[O-]` [ammonium vanadate] + O as the compound, how does the mass density (313.15 K, m1 = 0.0946) read?
Answer: 1002.1 ± 2 kg/m3

Question: What about the mass density (343.15 K, m1 = 0.2563) of the same compound?
Answer: 1001.1 ± 2.3 kg/m3

Question: And the mass density (343.15 K, m1 = 0.2612)?
Answer: 1001.3 ± 2.1 kg/m3

Source: the NIST ThermoML archive (doi:10.1021/acs.jced.5b00985)
